# Source: patent US9624238B2, “4H-thieno[3,2-C]chromene-based inhibitors of Notum Pectinacetylesterase and methods of their use” (Lexicon Pharmaceuticals, Inc., priority 2011, dated 2017)
# Legend:
# [1] = biological target: T1, human notum pectinacetyltransferase (Homo sapiens, UniProt Q6P988); experiment: Binding assay (OPTS esterase substrate, fluorimetric); assay type: biochemical; conditions: class symbols
# T1 construct: made in house; unpurified conditioned medium used
# T1 sequence (Q6P988 20-496): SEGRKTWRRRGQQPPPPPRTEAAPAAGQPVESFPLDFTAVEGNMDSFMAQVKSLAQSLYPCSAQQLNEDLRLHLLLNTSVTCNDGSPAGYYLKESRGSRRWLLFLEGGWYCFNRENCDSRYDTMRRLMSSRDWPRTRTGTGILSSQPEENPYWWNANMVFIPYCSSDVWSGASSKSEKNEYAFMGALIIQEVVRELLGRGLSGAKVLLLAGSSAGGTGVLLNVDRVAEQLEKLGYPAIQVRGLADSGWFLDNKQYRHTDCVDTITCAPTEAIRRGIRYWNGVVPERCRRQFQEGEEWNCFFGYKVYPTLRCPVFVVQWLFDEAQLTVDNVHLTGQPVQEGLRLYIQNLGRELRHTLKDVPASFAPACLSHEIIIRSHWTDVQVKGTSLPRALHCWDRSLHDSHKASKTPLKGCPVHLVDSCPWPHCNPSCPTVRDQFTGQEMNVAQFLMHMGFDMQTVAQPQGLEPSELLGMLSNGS
# Description: Plasmid containing human notum pectinacetyltransferase in pcDNA3.1(+) vector was transfected into HEK (293 cells and clones were selecting by growing in presence of 400 ug/mL of G418. Condition media from these cells was used for the assay.
# [2] = biological target: T1, human notum pectinacetyltransferase; experiment: Reporter assay (CellSensor LEF/TCF-bla FreeStyle 293F cells, Wnt3a and notum conditioned media); assay type: cell-based; conditions: class symbols
# Description: Plasmid containing human notum pectinacetyltransferase in pcDNA3.1(+) vector was transfected into HEK (293 cells and clones were selecting by growing in presence of 400 ug/mL of G418. The clone containing highest expression of human notum pectinacetyltransferase in the conditioned media was maintained for all future activity assays. L cells overexpressing and secreting Wnt3a into the conditioned media were purchased from ATCC.
# The assay protocol was as follows. […] The cell growth medium consisted of DMEM with 10% Dialyzed FBS, 5 μg/ml Blasticidin (Invitrogen, R210-01), 0.1 mM NEAA, 25 mM HEPES and 1×GPS. Cells were then trypsinized by first rinsing with PBS, followed by addition of 5 mL of trypsin and incubation of plates at room temperature for two minutes. A total of 10 mL of assay media (Opti-MEM, plus 0.5% dialyzed FBS, 0.1 mM NEAA, 1 mM sodium pyruvate, 10 mM HEPES, 1×GPS) was then added per 15 cm plate. Cells were counted and suspended at 0.75 million cells per mL. […] After incubation of cells at 37° C. for 3 hours, 10 μL of 30 mM LiCl in assay medium was added per well, followed by incubation at 37° C. for another 3 hours. […] Ten μL of the Wnt3a/notum pentinacetyltransferase mixture was then transferred from Greiner plates to each well of the 384-well plates containing the CellSensor cells.
Structure (SMILES),IC50 [1],EC50 [2]
O=C(O)C1CN(C(=O)c2cc3c(s2)-c2ccc(Cl)c(F)c2OC3)CC1c1cccs1 (stereo not drawn),< 1000 nM,< 50 nM
CC(=O)N1Cc2cc(C(=O)O)sc2-c2ccccc21,< 2000 nM,< 100 nM
O=C(O)c1cc2c(s1)-c1ccccc1CCC2,< 1000 nM,< 1000 nM
O=C(O)c1cc2c(s1)-c1cc(Cl)cc(Br)c1OC2,< 1000 nM,< 50 nM
O=C(O)c1cc2c(s1)-c1cc(Cl)cc(Cl)c1SC2,< 1000 nM,< 50 nM
Cc1cc(C)c2c(c1)-c1sc(C(N)=O)cc1CO2,< 2000 nM,< 50 nM
NC(=O)c1cc2c(s1)-c1cc(Cl)c(Cl)cc1CC2,< 1000 nM,< 50 nM
O=C(O)c1cc2c(s1)-c1cc([N+](=O)[O-])ccc1OC2,< 1000 nM,< 50 nM
O=C(O)c1cc2c(s1)-c1cc(F)ccc1CCC2,< 1000 nM,< 1000 nM
CC(C)(C#N)NC(=O)c1cc2c(s1)-c1ccccc1CC2,< 1000 nM,< 500 nM
CCOC(=O)c1cc2c(s1)-c1ccc(C)c(Cl)c1CC2,< 1000 nM,< 50 nM
CCOC(=O)c1cc2c(s1)-c1cc(C)cc(F)c1CC2,< 1000 nM,< 50 nM
CCOC(=O)c1cc2c(s1)-c1cc(C)cc(C)c1CC2,< 2000 nM,< 100 nM
CCOC(=O)c1cc2c(s1)-c1ccc(C)c([N+](=O)[O-])c1CC2,< 100 nM,< 50 nM
COC(=O)C1CN(C(=O)c2cc3c(s2)-c2cc(C)cc(F)c2CC3)CC1c1ccccc1 (stereo not drawn),< 1000 nM,< 50 nM
COC(=O)CNC(=O)c1cc2c(s1)-c1ccccc1CC2,< 1000 nM,< 50 nM
COC(=O)CNC(=O)c1cc2c(s1)-c1cc(C)cc(C)c1CC2,< 2000 nM,< 100 nM

# More lines, now with the values ahead:
IC50 [1],EC50 [2],Structure (SMILES)
< 100 nM,< 50 nM,O=C(O)CNC(=O)c1cc2c(s1)-c1ccccc1CC2
< 50 nM,< 50 nM,O=C(O)c1cc2c(s1)-c1ccccc1OCC2
< 50 nM,< 50 nM,Cc1ccc2c(c1Cl)CCc1cc(C(N)=O)sc1-2
< 100 nM,< 50 nM,Cc1ccc2c(c1Cl)CCc1cc(C(=O)O)sc1-2
< 50 nM,< 50 nM,Cc1ccc2c(c1F)CCc1cc(C(N)=O)sc1-2
< 100 nM,< 50 nM,Cc1ccc2c(c1F)CCc1cc(C(=O)O)sc1-2
< 50 nM,< 50 nM,Cc1cc(F)c2c(c1)-c1sc(C(N)=O)cc1CC2
< 100 nM,< 50 nM,NC(=O)c1cc2c(s1)-c1ccc(Cl)c(Cl)c1OC2
< 50 nM,< 50 nM,O=C(NCc1ccccn1)c1cc2c(s1)-c1ccc(F)c(F)c1CC2
< 50 nM,< 50 nM,Cc1cc(C)c2c(c1)-c1sc(C(=O)O)cc1CC2
< 100 nM,< 50 nM,O=C(O)c1cc2c(s1)-c1ccc(Cl)c(F)c1OC2
< 100 nM,< 50 nM,O=C(O)c1cc2c(s1)-c1cc(F)c(Cl)cc1SC2
< 50 nM,< 50 nM,Cc1ccc2c(c1[N+](=O)[O-])CCc1cc(C(=O)O)sc1-2
< 100 nM,< 50 nM,O=C(O)c1cc2c(s1)-c1cc(Cl)c(Cl)cc1CC2
< 100 nM,< 100 nM,NC(=O)c1cc2c(s1)-c1cc(Cl)ccc1OCC2
< 100 nM,< 100 nM,O=C(O)c1cc2c(s1)-c1cc(Cl)ccc1OCC2
< 50 nM,< 50 nM,NC(=O)c1cc2c(s1)-c1cc(F)ccc1OCC2
< 50 nM,< 50 nM,O=C(O)c1cc2c(s1)-c1cc(F)ccc1OCC2
< 50 nM,< 50 nM,NC(=O)c1cc2c(s1)-c1cc(F)ccc1CCC2
< 100 nM,< 100 nM,O=C(NCCO)c1cc2c(s1)-c1ccccc1CCC2
< 50 nM,< 50 nM,N#CCNC(=O)c1cc2c(s1)-c1ccccc1CC2
< 100 nM,< 50 nM,CNC(=O)c1cc2c(s1)-c1ccccc1CC2
